Measured values: the NIST ThermoML archive (doi:10.1016/j.jct.2006.08.009)

Assay: mn = molality of the nth substance listed, in mol/kg
Conditions: 350 kPa, Liquid; for apparent molar heat capacity: Extra sensitive DSC

O[C@H]1[C@H](O)[C@@H](O)[C@H](O)[C@@H](O)[C@H]1O [cis-1,2,3,5-trans-4,6-cyclohexanehexol] + O
Conditions	apparent molar heat capacity [J/K/mol]	mass density [kg/m3]
278.15 K, m1 = 0.02	255	1001.54
278.15 K, m1 = 0.05	253	1004.04
278.15 K, m1 = 0.0814	256.7	–
278.15 K, m1 = 0.1	267.7	–
278.15 K, m1 = 0.1028	257.3	–
278.15 K, m1 = 0.248	263.1	1020.11
278.15 K, m1 = 0.3973	262.1	1031.74
278.15 K, m1 = 0.4994	269.8	1039.85
283.15 K, m1 = 0.02	287	1001.49
283.15 K, m1 = 0.05	285	1003.92
283.15 K, m1 = 0.0814	292.1	–
283.15 K, m1 = 0.1	295.6	–
283.15 K, m1 = 0.1028	284.4	–
283.15 K, m1 = 0.248	290.5	1019.58
283.15 K, m1 = 0.3973	289	1030.95
283.15 K, m1 = 0.4994	295.3	1038.94
288.15 K, m1 = 0.02	312	1000.86
288.15 K, m1 = 0.05	312	1003.27
288.15 K, m1 = 0.0814	323	–
288.15 K, m1 = 0.1	319.7	–
288.15 K, m1 = 0.1028	306	–
288.15 K, m1 = 0.248	312.7	1018.73
288.15 K, m1 = 0.3973	311.2	1029.97
288.15 K, m1 = 0.4994	316.4	1037.9
293.15 K, m1 = 0.02	332	–
293.15 K, m1 = 0.05	332	–
293.15 K, m1 = 0.0814	342.6	–
293.15 K, m1 = 0.1	339	–
293.15 K, m1 = 0.1028	326	–
293.15 K, m1 = 0.248	331.5	–
293.15 K, m1 = 0.3973	329.9	–
293.15 K, m1 = 0.4994	334.1	–
298.15 K, m1 = 0.02	347	998.75
298.15 K, m1 = 0.05	348	1001.13
298.15 K, m1 = 0.0814	358.6	1003.66
298.15 K, m1 = 0.1	354.4	–
298.15 K, m1 = 0.1028	343.7	–
298.15 K, m1 = 0.248	347.5	1016.29
298.15 K, m1 = 0.3973	345.6	1027.32
298.15 K, m1 = 0.4994	349.1	1035.14
303.15 K, m1 = 0.02	362	–
303.15 K, m1 = 0.05	362.7	–
303.15 K, m1 = 0.0814	371.2	–
303.15 K, m1 = 0.1	367.4	–
303.15 K, m1 = 0.1028	358.9	–
303.15 K, m1 = 0.248	361.3	–
303.15 K, m1 = 0.3973	359	–
303.15 K, m1 = 0.4994	361.9	–
308.15 K, m1 = 0.02	374	995.69
308.15 K, m1 = 0.05	374.4	998.05
308.15 K, m1 = 0.0814	381.2	1000.51
308.15 K, m1 = 0.1	378.5	1001.45
308.15 K, m1 = 0.1028	371.6	1001.99
308.15 K, m1 = 0.248	373.2	1012.97
308.15 K, m1 = 0.3973	370.4	1023.83
308.15 K, m1 = 0.4994	373	1031.55
313.15 K, m1 = 0.02	386	–
313.15 K, m1 = 0.05	385.5	–
313.15 K, m1 = 0.0814	390.4	–
313.15 K, m1 = 0.1	388.5	–
313.15 K, m1 = 0.1028	382.8	–
313.15 K, m1 = 0.248	383.6	–
313.15 K, m1 = 0.3973	380.5	–
313.15 K, m1 = 0.4994	382.7	–
318.15 K, m1 = 0.02	395	991.86
318.15 K, m1 = 0.05	394.7	994.19
318.15 K, m1 = 0.0814	398.6	996.61
318.15 K, m1 = 0.1	397.3	997.52
318.15 K, m1 = 0.1028	392.5	998.07
318.15 K, m1 = 0.248	392.7	1008.92
318.15 K, m1 = 0.3973	389.4	1019.64
318.15 K, m1 = 0.4994	391.3	1027.27
323.15 K, m1 = 0.02	403	–
323.15 K, m1 = 0.05	402.6	–
323.15 K, m1 = 0.0814	405.9	–
323.15 K, m1 = 0.1	405	–
323.15 K, m1 = 0.1028	401	–
323.15 K, m1 = 0.248	400.7	–
323.15 K, m1 = 0.3973	397.3	–
323.15 K, m1 = 0.4994	398.9	–
328.15 K, m1 = 0.02	410	987.32
328.15 K, m1 = 0.05	409.6	989.63
328.15 K, m1 = 0.0814	412.6	992.01
328.15 K, m1 = 0.1	411.7	992.93
328.15 K, m1 = 0.1028	408.3	993.47
328.15 K, m1 = 0.248	407.8	1004.2
328.15 K, m1 = 0.3973	404.3	1014.83
328.15 K, m1 = 0.4994	405.6	1022.36
333.15 K, m1 = 0.02	416	–
333.15 K, m1 = 0.05	415.7	–
333.15 K, m1 = 0.0814	418.7	–
333.15 K, m1 = 0.1	417.8	–
333.15 K, m1 = 0.1028	414.9	–
333.15 K, m1 = 0.248	414.1	–
333.15 K, m1 = 0.3973	410.5	–
333.15 K, m1 = 0.4994	411.6	–
338.15 K, m1 = 0.02	421	982.18
338.15 K, m1 = 0.05	421.5	984.47
338.15 K, m1 = 0.0814	424.1	986.82
338.15 K, m1 = 0.1	423.2	987.73
338.15 K, m1 = 0.1028	420.6	988.27
338.15 K, m1 = 0.248	419.6	998.91
338.15 K, m1 = 0.3973	416.1	1009.45
338.15 K, m1 = 0.4994	416.9	1016.94
343.15 K, m1 = 0.02	427	–
343.15 K, m1 = 0.05	426.7	–
343.15 K, m1 = 0.0814	429	–
343.15 K, m1 = 0.1	427.9	–
343.15 K, m1 = 0.1028	425.9	–
343.15 K, m1 = 0.248	424.6	–
343.15 K, m1 = 0.3973	421	–
343.15 K, m1 = 0.4994	421.6	–
348.15 K, m1 = 0.02	430.7	976.46
348.15 K, m1 = 0.05	431.2	978.72
348.15 K, m1 = 0.0814	433.3	981.07
348.15 K, m1 = 0.1	431.9	981.98
348.15 K, m1 = 0.1028	430.3	982.51
348.15 K, m1 = 0.248	428.9	993.1
348.15 K, m1 = 0.3973	425.2	1003.55
348.15 K, m1 = 0.4994	425.8	1010.99
353.15 K, m1 = 0.02	435.4	–
353.15 K, m1 = 0.05	435.4	–
353.15 K, m1 = 0.0814	437.2	–
353.15 K, m1 = 0.1	435.3	–
353.15 K, m1 = 0.1028	434.1	–
353.15 K, m1 = 0.248	432.5	–
353.15 K, m1 = 0.3973	428.9	–
353.15 K, m1 = 0.4994	429.3	–
358.15 K, m1 = 0.02	439.4	970.24
358.15 K, m1 = 0.05	439	972.5
358.15 K, m1 = 0.0814	440.6	974.84
358.15 K, m1 = 0.1	438.3	975.72
358.15 K, m1 = 0.1028	437.2	976.24
358.15 K, m1 = 0.248	435.7	986.78
358.15 K, m1 = 0.3973	432	997.2
358.15 K, m1 = 0.4994	432.4	–
363.15 K, m1 = 0.02	442.2	–
363.15 K, m1 = 0.05	441.7	–
363.15 K, m1 = 0.0814	443.4	–
363.15 K, m1 = 0.1	440.5	–
363.15 K, m1 = 0.1028	439.4	–
363.15 K, m1 = 0.248	438.2	–
363.15 K, m1 = 0.3973	434.6	–
363.15 K, m1 = 0.4994	434.8	–
368.15 K, m1 = 0.02	–	963.51
368.15 K, m1 = 0.05	–	965.76
368.15 K, m1 = 0.0814	–	968.11
368.15 K, m1 = 0.1	–	969.08
368.15 K, m1 = 0.1028	–	969.48
368.15 K, m1 = 0.248	–	980
368.15 K, m1 = 0.3973	–	990.36
368.15 K, m1 = 0.4994	–	997.73
